Experimental data as given in the NIST ThermoML archive (doi:10.1016/j.jct.2015.09.018).

Test: molar heat capacity at constant pressure
Conditions: 101.33 kPa, Crystal 3, relaxation calorimetry

[O-2].[O-2].[Ti+4] [titanium(IV) oxide]
Conditions | molar heat capacity at constant pressure [J/K/mol]
0.5 K | 0.000432
1 K | 0.00103
1.5 K | 0.00196
2 K | 0.00337
2.01 K | 0.00218
2.35 K | 0.00327
2.47 K | 0.00544
2.5 K | 0.00541
2.88 K | 0.00862
3 K | 0.00821
3.5 K | 0.0119
3.72 K | 0.01489
4 K | 0.0165
4.31 K | 0.02048
4.5 K | 0.0221
4.54 K | 0.02277
4.77 K | 0.02538
5 K | 0.0288
5.03 K | 0.02844
5.32 K | 0.03402
5.5 K | 0.0365
5.56 K | 0.03861
5.85 K | 0.04314
6 K | 0.0454
6.14 K | 0.04818
6.46 K | 0.05442
6.5 K | 0.0553
6.84 K | 0.06161
7 K | 0.0662
7.16 K | 0.06852
7.5 K | 0.0782
7.53 K | 0.07958
7.93 K | 0.08951
8 K | 0.0911
8.34 K | 0.1005
8.5 K | 0.105
8.78 K | 0.1124
9 K | 0.12
9.23 K | 0.1263
9.5 K | 0.135
9.74 K | 0.1441
10 K | 0.152
10.23 K | 0.1603
10.79 K | 0.1786
11 K | 0.187
11.34 K | 0.2003
11.93 K | 0.2256
12 K | 0.227
12.55 K | 0.2505
13 K | 0.271
13.2 K | 0.2793
13.91 K | 0.3136
14 K | 0.318
14.6 K | 0.3493
15 K | 0.37
15.37 K | 0.3923
16 K | 0.428
16.16 K | 0.4371
16.99 K | 0.4905
17 K | 0.491
17.87 K | 0.5493
18 K | 0.559
18.78 K | 0.6158
19 K | 0.634
19.77 K | 0.6928
20 K | 0.714
20.78 K | 0.7811
21.84 K | 0.8773
23.01 K | 0.9887
24.2 K | 1.12
25 K | 1.21
25.43 K | 1.26
26.78 K | 1.42
28.14 K | 1.6
29.6 K | 1.8
30 K | 1.85
31.12 K | 2.01
32.74 K | 2.25
34.45 K | 2.52
35 K | 2.62
36.24 K | 2.82
38.12 K | 3.16
40 K | 3.52
40.1 K | 3.54
42.19 K | 3.95
44.41 K | 4.41
45 K | 4.54
46.71 K | 4.93
49.16 K | 5.48
50 K | 5.66
51.71 K | 6.07
54.41 K | 6.71
55 K | 6.87
57.24 K | 7.42
60 K | 8.12
60.22 K | 8.18
63.37 K | 8.97
65 K | 9.38
66.7 K | 9.78
70 K | 10.75
70.19 K | 10.75
73.8 K | 11.78
75 K | 12.2
77.13 K | 12.82
80 K | 13.67
81.7 K | 13.98
85 K | 15.16
85.33 K | 15.22
89.74 K | 16.6
90 K | 16.65
94.38 K | 17.97
95 K | 18.14
99.29 K | 19.28
100 K | 19.6
104.43 K | 20.84
109.84 K | 22.53
110 K | 22.48
115.54 K | 24.21
120 K | 25.26
121.46 K | 25.88
128.44 K | 27.05
130 K | 27.96
134.65 K | 29.35
140 K | 30.55
141.61 K | 31.35
148.86 K | 33.43
150 K | 33.04
156.57 K | 35.12
160 K | 35.43
165.09 K | 36.06
170 K | 37.72
173.67 K | 37.71
180 K | 39.89
182.65 K | 39.71
190 K | 41.95
192.19 K | 41.35
200 K | 43.91
201.69 K | 44.69
210 K | 45.75
212.16 K | 46.49
220 K | 47.49
223.15 K | 48.5
230 K | 49.13
234.7 K | 50.34
240 K | 50.66
246.88 K | 52.02
250 K | 52.11
259.67 K | 53.63
260 K | 53.46
270 K | 54.73
273.07 K | 55.28
273.15 K | 55.11
280 K | 55.92
287.77 K | 56.22
290 K | 57.04
298.15 K | 57.89
300 K | 58.08
302.73 K | 58.1
305 K | 58.58
